The values below come from ChEMBL document CHEMBL1137392, “Conformational analysis of an alpha3beta1 integrin-binding peptide from thrombospondin-1: implications for antiangiogenic drug design” (J Med Chem, 2006).

Where a SMILES comes first, the peptide text is derived from it. Bridges are numbered along the chain shown (N, C = ends).

For this experiment, the system named is MDA-MB-435. Description: Inhibition of alpha3beta1 integrin-dependent adhesion of MDA-MB-435 cells. Format: functional, cell-based. Particulars: Homo sapiens.
On to `CC(=O)N[C@H](Cc1ccccc1)C(=O)N[C@@H](C(=O)N[C@H](Cc1ccccc1)C(=O)N[C@H](CCCN=C(N)N)C(=O)N[C@@H](C(=O)N[C@H](CC(N)=O)C(=O)N[C@H](CCC(N)=O)C(=O)N[C@H](CC(C)C)C(=O)N[C@@H](C(=O)NCC(=O)N[C@H](CCC(N)=O)C(=O)N[C@H](Cc1ccccc1)C(N)=O)C(C)C)C(C)C)C(C)C`, for which the IC50 – broadly, the point on the concentration scale where inhibition reaches its midpoint – came out at 16 µM.
Next, `NC(=O)C[C@@H]1NC(=O)[C@@H](N)CSSC[C@@H](C(=O)O)NC(=O)[C@H](CCCN=C(N)N)NC(=O)CNC1=O` (H-CNGRC-OH; disulfide 1-5): more than 300 µM.
Next, `CC(C)[C@@H]1NC(=O)[C@H](CC(N)=O)NC(=O)[C@@H](N)CSSC[C@@H](C(=O)O)NC(=O)[C@H](CCCN=C(N)N)NC1=O` (H-CNVRC-OH; disulfide 1-5): more than 300 µM.
In turn, H-FQGVLQAVRFVF-OH showed an IC50 of 300 µM.
Next, H-FQGVLQDVRFVF-OH: 13 µM.
Next, H-FQGVLQNARFVF-OH: more than 300 µM; H-FQGVLQNLRFVF-OH: 17 µM; H-FQGVLQNVAFVF-OH: more than 300 µM.
With H-FQGVLQQVRFVF-OH the figure was 27 µM.
